Assay results: US20180177729A1, “G PROTEIN-COUPLED RECEPTORS INCORPORATED INTO REHYDRATED POLYMER VESICLES RETAIN FUNCTIONALITY” (UNIVERSITY OF SOUTHERN CALIFORNIA, priority 2016, published 2018)

Target: T1, human serotonin 5-HT1A receptor (5-HT1AR) (Homo sapiens, UniProt P08908)
T1 construct: purchased Perkin Elmer
T1 sequence (P08908 1-422): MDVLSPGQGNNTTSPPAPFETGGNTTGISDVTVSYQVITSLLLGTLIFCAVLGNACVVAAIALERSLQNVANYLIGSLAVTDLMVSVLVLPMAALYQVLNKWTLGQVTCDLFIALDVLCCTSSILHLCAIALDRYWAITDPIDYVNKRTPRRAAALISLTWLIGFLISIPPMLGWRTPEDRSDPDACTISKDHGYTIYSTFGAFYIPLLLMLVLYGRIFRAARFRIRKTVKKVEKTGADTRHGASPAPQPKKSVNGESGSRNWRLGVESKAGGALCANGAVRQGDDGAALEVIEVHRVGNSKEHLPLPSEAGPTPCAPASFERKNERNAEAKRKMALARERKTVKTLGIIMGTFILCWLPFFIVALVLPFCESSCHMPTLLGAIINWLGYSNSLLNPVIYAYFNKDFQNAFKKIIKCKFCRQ
Experiment: 5-HT1A activity assay via microplate reader (BODIPY-GTPγS unquenching) in pGUPs
Format: biochemical
Settings: for Rate (protein functional rate): agonist 8-OH-DPAT, 37° C., 12 hours
Method: Fluorescence unquenching of BODIPY-GTPγS due to G protein binding was monitored every 5 minutes. Tracked fluorescence over time was first calculated as percent intensity increase to account for variation in sample size. Curves represent six independent replicates of the same experimental protocol and each time point is an average of the intensity increase. Curves were then normalized for ease in viewing the differences in protein functional rate.
25 mm no. 1 coverslips were cleaned via sonication in MeOH for 30 minutes at 35° C. Coverslips were dried and were further plasma treated in a PDC-32G benchtop plasma cleaner (Harrick Plasma, USA) for 15 minutes. Coverslips were held in Sykes-Moore chambers for vesicle formation. Protein-incorporated polymeric giant unilamellar protein-vesicles (pGUPs) were formed using methods similar to those previously published for lipid vesicles. Briefly, a 1:1 v/v mixture of membrane fragment suspension and agarose (3% w/v) at 45° C. was drop casted onto coverslips for thin film formation. The hydrogel film was allowed to gel and a film of polymer solution (5 mg/ml in CHCl3) was subsequently made. Solvent was evaporated using a stream of N2 gas. […] Vesicles were harvested from the coverslip and diluted in 3× of an isoosmotic glucose solution (200 mM glucose in PBS, pH 7.4). (p)GUPs were allowed to sediment in glucose for 30 minutes at room temperature.
Prepared and settled pGUPs were transferred to a flat bottom 96-well plate. Agonist 8-OH-DPAT was added to each well to a final concentration of 150 nM immediately prior to reading fluorescence. Control pGUPs were run without the addition of the agonist. Rehydration buffer with and without agonist and protein were read as positive and negative controls. Samples were read at physiological temperature (37° C.) every 5 minutes for twelve hours to ensure complete activity assessment. Fluorescence reading of BODIPY-GTPγS unquenching was done on a Biotek Synergy H4 Microplate Reader equipped with a xenon flash lamp. Excitation was set to 485/20 nm and emission at 528/20 nm at a read height of 7 mm.
Fluorescence microtiter results were collect and analyzed using JMP. Six separate observations were fitted and averaged to obtain a single curve with standard error mean values. Rates were fitted to the JMP Mechanistic Growth curve using a single exponential. Statistical analysis using a Tukey-Kramer pairwise comparison of means were done using JMP with a 95% confidence interval (α=0.05).

| Rate (protein functional rate) (14 pM antagonist in pGUPs) | Rate (protein functional rate) (14 nM antagonist in pGUPs) | Rate (protein functional rate) (14 μM antagonist in pGUPs) | Effect on protein functional rate (antagonist in pGUPs) | SMILES |
| --- | --- | --- | --- | --- |
| 0.102 min⁻¹ | 0.096 min⁻¹ | 0.077 min⁻¹ |  | O=C(CCCN1CCC2(CC1)C(=O)NCN2c1ccccc1)c1ccc(F)cc1 [Spiperone, spiperone] |
|  |  | 0.057 min⁻¹ | reduce the protein functional rate | COc1ccccc1N1CCN(CCCCN2C(=O)c3ccccc3C2=O)CC1 [NAN-190] |
